`N#Cc1ccccc1-n1ccc2cc(-c3cccnc3)ccc21` [Example 58, 1-(2-Cyanophenyl)-5-(3-pyridyl)-1H-indole] showed a melting point of 138 to 141 °C.
